Several values for one entry are separate records, joined by “and”; a condition that tells them apart may be missing. Equal entries are not always repeated.
Test system: human primary hepatocytes
Assay: Metabolic disposition of [^14C]-Compound 1 and [^14C]-2′-C-methyl guanosine in human primary hepatocytes (incubation medium, cellular extracts, nucleotide levels)
Type: in vitro ADME
Conditions: for AUC (area under the concentration-time curve) of Compound 7 levels: 0-24 h
Description: Primary hepatocytes: Freshly isolated cells from animal and human liver were obtained in suspension on ice. Cells were pelleted by centrifugation at 70-75×g (rat) or 95-90×g (monkey and human) and resuspended at 0.8 million cells per mL of platting medium (William's E supplemented with 5% FBS, 0.5% penicillin-streptomycin, 1% L-glutamine, 4 μg/mL insulin and 1 μM dexamethasone). Multi-well collagen I-coated plates (rat tail collagen type I; 12- or 6-well) were then seeded by addition of 1 mL (12-well; 0.8 million cells/well) or 2 mL (6-well; 1.6 million cells/well) of cell suspension. The plates were gently shaken to evenly distribute the cells and placed in an incubator at 37° C. for approximately 4 to 6 hours to allow cells to attach. Once cells were attached, the platting medium was removed and replaced with hepatocyte culture medium (William's E supplemented with penicillin-streptomycin, 1% L-glutamine, 1% insulin-transferrin-selenium and 0.1 μM dexamethasone). Cells were left overnight in an incubator at 37° C. to acclimatize to culture and the medium.
Hepatocyte incubations with radiolabeled Compound 1 and 2′-C-methyl guanosine, both labeled in the C-8 position of the guanine moiety, were conducted at a final volume of 2.0 mL hepatocyte culture medium/well ([…]). Culture medium from overnight incubation of cells was removed and replaced with fresh medium, pre-warmed to 37° C., containing 1 or 10 μM [^14C]-Compound 1 ([…]) or [^14C]-2′-C-methyl guanosine (127 DPM/μmol) from a stock solution in DMSO (final DMSO concentration was 0.1%) or 50% ethanol (final ethanol concentration was 0.2%). After 1, 4, 8 and 24 hours, 0.5-1.0 mL of incubation medium was removed and stored at −20° C. until analysis (described below). The remaining medium was discarded and cell monolayers were carefully washed two times with ice-cold PBS. Following the last wash, all PBS was carefully removed and 1.0 mL of extraction solution (ice-cold 70% methanol) added. Cells were scrapped off and suspended in the extraction solution, transferred to 2 mL polypropylene microfuge tubes and intracellular contents extracted overnight at −20° C.
Preliminary identification of putative metabolites was conducted by comparing the retention time of observed metabolites in incubation medium and cellular extracts with retention times obtained with chemically synthesized standards using the chromatography conditions described below. Further identification of 2′-C-methyl guanosine nucleotides (mono-, di- and triphosphate) was carried out by incubating cellular extract samples with alkaline phosphatase (10 units for 60 min at 37° C.) and comparing the HPLC retention times of the resulting nucleosides with that of authentic 2′-C-methyl guanosine.
Cellular extracts were prepared by centrifugation at 16,000 RCF using an Eppendorf microcentrifuge (Eppendorf, Model 5415D) for 10 min to remove cellular debris. An aliquot of 5-10 μL of the supernatant was added to 5 mL of EcoLite™ (MP, Irvine, Calif.) liquid scintillation cocktail and radioactivity measured by liquid scintillation counting (LSC) using a Beckman Coulter LS6500 multipurpose liquid scintillation counter (Beckman Instruments, Fullerton, Calif.). The remaining sample was then dried using a Labconco refrigerated centrivap concentrator (Labconco, Kansas City, Mo.). Dry extracts were reconstituted in 120 μL of HPLC-grade water and centrifuged at 16,000 RCF using an Eppendorf microcentrifuge for 10 min. Prior to HPLC analysis (described below), radioactivity of the concentrated extracts was measured by LSC using 5 μL aliquots. Extraction recovery was then determined by comparing total radioactivity in extracts before and after drying. The remaining extract was then analyzed by HPLC with online radioactivity detection using a Flow Scintillation Analyzer Radiomatic™ 515TR. Radioactivity in the separated components was quantified by integrating the peaks using Flo-One™ Software (Perkin Elmer Life Sciences). […]

[1] = human hepatocytes (Hu775), 1 μM [^14C]-Compound 1, 1 h
[2] = human hepatocytes (Hu775), 1 μM [^14C]-Compound 1, 8 h
[3] = human hepatocytes (Hu775), 1 μM [^14C]-Compound 1, 24 h
[4] = human hepatocytes Hu775, 1 μM [^14C]-2′-C-methyl guanosine, 1 h
[5] = human hepatocytes Hu775, 1 μM [^14C]-2′-C-methyl guanosine, 8 h
[6] = human hepatocytes Hu775, 1 μM [^14C]-2′-C-methyl guanosine, 24 h

SMILES: C[C@@]1(O)[C@H](O)[C@@H](COP(=O)(O)OP(=O)(O)OP(=O)(O)O)O[C@H]1n1cnc2c(=O)[nH]c(N)nc21 [Compound 7, [(2R)-2-methyl-β-D-ribofuranosyl]guanine 5′-triphosphate]
- metabolites observed in cellular extracts (% of total radioactivity) (human hepatocytes (Hu759, Hu775), 10 μM [^14C]-Compound 1, 24 h): 69.5% and 59.6%
- 2′-C-methyl guanosine nucleotide levels in cellular extracts [1]: 8.80 pmol/million cells
- metabolites observed in cellular extracts (% of total radioactivity) [1]: 48.5%
- 2′-C-methyl guanosine nucleotide levels in cellular extracts [2]: 44.2 pmol/million cells
- metabolites observed in cellular extracts (% of total radioactivity) [2]: 75.0%
- 2′-C-methyl guanosine nucleotide levels in cellular extracts [3]: 60.4 pmol/million cells
- metabolites observed in cellular extracts (% of total radioactivity) [3]: 67.0%
- Compound 7 AUC0-24h (human hepatocytes (n=1), 1 μM [^14C]-2′-C-methyl guanosine): 302 pmol*h/million cells
- Compound 7 AUC0-24h (human hepatocytes (n=1), 1 μM [^14C]-Compound 1): 1,027 pmol*h/million cells
- Compound 7 AUC0-24h (human hepatocytes (n=2), 10 μM [^14C]-Compound 1, mean): 7,398 pmol*h/million cells
- 2′-C-methyl guanosine nucleotide levels in cellular extracts (human hepatocytes Hu759, 10 μM [^14C]-2′-C-methyl guanosine, 0 h): 0 pmol/million cells
- AUC (area under the concentration-time curve) of Compound 7 levels (human hepatocytes Hu759, 10 μM [^14C]-2′-C-methyl guanosine): 2871 pmol * hr/million cells
- 2′-C-methyl guanosine nucleotide levels in cellular extracts (human hepatocytes Hu759, 10 μM [^14C]-2′-C-methyl guanosine, 1 h): 9.70 pmol/million cells
- 2′-C-methyl guanosine nucleotide levels in cellular extracts (human hepatocytes Hu759, 10 μM [^14C]-2′-C-methyl guanosine, 4 h): 51.0 pmol/million cells
- 2′-C-methyl guanosine nucleotide levels in cellular extracts (human hepatocytes Hu759, 10 μM [^14C]-2′-C-methyl guanosine, 8 h): 96.0 pmol/million cells
- 2′-C-methyl guanosine nucleotide levels in cellular extracts (human hepatocytes Hu759, 10 μM [^14C]-2′-C-methyl guanosine, 24 h): 214 pmol/million cells
- 2′-C-methyl guanosine nucleotide levels in cellular extracts (human hepatocytes Hu759, 10 μM [^14C]-Compound 1, 0 h): 0 pmol/million cells
- AUC (area under the concentration-time curve) of Compound 7 levels (human hepatocytes Hu759, 10 μM [^14C]-Compound 1): 5759 pmol * hr/million cells
- 2′-C-methyl guanosine nucleotide levels in cellular extracts (human hepatocytes Hu759, 10 μM [^14C]-Compound 1, 1 h): 24.0 pmol/million cells
- 2′-C-methyl guanosine nucleotide levels in cellular extracts (human hepatocytes Hu759, 10 μM [^14C]-Compound 1, 4 h): 166 pmol/million cells
- 2′-C-methyl guanosine nucleotide levels in cellular extracts (human hepatocytes Hu759, 10 μM [^14C]-Compound 1, 8 h): 225 pmol/million cells
- 2′-C-methyl guanosine nucleotide levels in cellular extracts (human hepatocytes Hu759, 10 μM [^14C]-Compound 1, 24 h): 360 pmol/million cells
- AUC (area under the concentration-time curve) of Compound 7 levels (human hepatocytes Hu775, 1 μM [^14C]-2′-C-methyl guanosine): 302 pmol * hr/million cells
- 2′-C-methyl guanosine nucleotide levels in cellular extracts [4]: 1.90 pmol/million cells
- Major metabolites observed in cellular extracts (% of total radioactivity) [4]: 5.36 % of total radioactivity
- 2′-C-methyl guanosine nucleotide levels in cellular extracts [5]: 11.0 pmol/million cells
- Major metabolites observed in cellular extracts (% of total radioactivity) [5]: 27.3 % of total radioactivity
- 2′-C-methyl guanosine nucleotide levels in cellular extracts [6]: 21.0 pmol/million cells
- Major metabolites observed in cellular extracts (% of total radioactivity) [6]: 46.3 % of total radioactivity
- AUC (area under the concentration-time curve) of Compound 7 levels (human hepatocytes Hu775, 1 μM [^14C]-Compound 1): 1027 pmol * hr/million cells
- 2′-C-methyl guanosine nucleotide levels in cellular extracts (human hepatocytes Hu775, 10 μM [^14C]-2′-C-methyl guanosine, 0 h): 0 pmol/million cells
- AUC (area under the concentration-time curve) of Compound 7 levels (human hepatocytes Hu775, 10 μM [^14C]-2′-C-methyl guanosine): 3548 pmol * hr/million cells
- 2′-C-methyl guanosine nucleotide levels in cellular extracts (human hepatocytes Hu775, 10 μM [^14C]-2′-C-methyl guanosine, 1 h): 18.5 pmol/million cells
- 2′-C-methyl guanosine nucleotide levels in cellular extracts (human hepatocytes Hu775, 10 μM [^14C]-2′-C-methyl guanosine, 4 h): 86 pmol/million cells and 86.0 pmol/million cells
- 2′-C-methyl guanosine nucleotide levels in cellular extracts (human hepatocytes Hu775, 10 μM [^14C]-2′-C-methyl guanosine, 8 h): 149 pmol/million cells
- 2′-C-methyl guanosine nucleotide levels in cellular extracts (human hepatocytes Hu775, 10 μM [^14C]-2′-C-methyl guanosine, 24 h): 215 pmol/million cells
- 2′-C-methyl guanosine nucleotide levels in cellular extracts (human hepatocytes Hu775, 10 μM [^14C]-Compound 1, 0 h): 0 pmol/million cells
- AUC (area under the concentration-time curve) of Compound 7 levels (human hepatocytes Hu775, 10 μM [^14C]-Compound 1): 9036 pmol * hr/million cells
- 2′-C-methyl guanosine nucleotide levels in cellular extracts (human hepatocytes Hu775, 10 μM [^14C]-Compound 1, 1 h): 54 pmol/million cells and 54.0 pmol/million cells
- 2′-C-methyl guanosine nucleotide levels in cellular extracts (human hepatocytes Hu775, 10 μM [^14C]-Compound 1, 4 h): 216 pmol/million cells
- 2′-C-methyl guanosine nucleotide levels in cellular extracts (human hepatocytes Hu775, 10 μM [^14C]-Compound 1, 8 h): 366 pmol/million cells
- 2′-C-methyl guanosine nucleotide levels in cellular extracts (human hepatocytes Hu775, 10 μM [^14C]-Compound 1, 24 h): 564 pmol/million cells
- Compound 7 maximal levels (human hepatocytes, 1 μM [^14C]-Compound 1): 60.4 pmol/million cells
- Maximum Compound 7 levels (human hepatocytes, 10 μM [^14C]-2′-C-methyl guanosine, at 24 hours): 215 pmol/million cells
- Maximum Compound 7 levels (human hepatocytes, 10 μM [^14C]-Compound 1, at 24 hours, mean of two donors): 296 pmol/million cells
